{"source": "patent US12168639B2", "about": "(priority 2013, dated 2024)", "key": {"[1]": {"test_system": "rats fed a high-fat diet and sucrose supplemented (5%) drinking water", "settings": "rat, in vivo"}, "[2]": {"test_system": "Isolated mitochondria from brain", "assay_type": "cell-based, rat"}, "[3]": {"test_system": "whole-cell brain preparations", "assay_type": "cell-based"}, "[4]": {"test_system": "Isolated mitochondria from liver", "assay_type": "cell-based, rat"}, "rats [5]": {"test_system": "rats", "settings": "rat, in vivo"}, "[6]": {"settings": "rat, in vivo"}, "rats [7]": {"test_system": "rats", "settings": "rat, in vivo", "remark": "listed apart in the source"}}}
{"smiles": "O=[N+]([O-])c1ccc(O)c([N+](=O)[O-])c1", "note": "[DNP, 2,4-dinitrophenol]", "values": [{"measurement": "lowest dose effective at lowering liver TAG", "setting": "[1]", "result": 5, "unit": "mg/kg"}, {"measurement": "mitochondrial uncoupling (oxygen consumption)", "setting": "[2]", "result": "uncoupled both tissues"}, {"measurement": "uncoupling", "setting": "[3]", "result": "neither DNP nor DNPME was found to uncouple"}, {"measurement": "mitochondrial uncoupling (oxygen consumption)", "setting": "[4]", "result": "uncoupled both tissues"}, {"measurement": "lowest dose where systemic toxicities may be observed", "setting": "rats [5]", "result": 25, "unit": "mg/kg"}, {"measurement": "mortality acutely after IP injection", "setting": "rats [5]", "result": "rapid dose-dependent mortality"}, {"measurement": "rectal temperature after IP injection", "setting": "rats [5]", "result": "large, dose-dependent increase"}, {"measurement": "doses causing increase in rectal temperatures and mortality", "setting": "rats [5]; ip", "result": "above 10 mg/kg"}, {"measurement": "peak DNP liver concentrations", "setting": "[6]", "result": "~60", "unit": "µM"}, {"measurement": "peak plasma DNP concentration", "setting": "[6]", "result": "~120", "unit": "µM"}, {"measurement": "peak plasma DNP concentrations", "setting": "[6]", "result": "~380", "unit": "µM"}, {"measurement": "time of peak plasma concentrations of DNP after injection", "setting": "[6]", "result": 1, "unit": "h"}, {"measurement": "ratio of effective to toxic dose", "setting": "rats [7]", "result": 0.2}, {"measurement": "toxic threshold of chronic treatment", "setting": "rats [7]", "result": 1, "unit": "mg/kg"}]}
